In patent US12545896B2, “Growth inhibitor” (Orizuru Therapeutics, Inc., priority 2019, dated 2026):

Columns and labels:
[1] = test system: insulin-producing cell population obtained by the differentiation from iPS cells (CHGA-negative cells; insulin-positive and NKX6.1-positive cells); test: Insulin-producing cell population treated with PLK inhibitor for 7 days in 30 mL reactor for culture (Example 2); format: cell-based; details: 3 μM, 7 days treatment
Method: Specifically, the endocrine progenitor cell population obtained by the differentiation from iPS cells was cultured for 4 days in a medium for induction of differentiation in a 30 mL reactor for culture and thereby differentiated into an insulin-producing cell population.
For a control, the endocrine progenitor cell population obtained by the differentiation from iPS cells was cultured for 11 days in a medium for induction of differentiation in a 30 mL reactor for culture and thereby differentiated into an insulin-producing cell population.

[2] = test system: insulin-producing cell population obtained by the differentiation from iPS cells (CHGA-negative cells; insulin-positive and NKX6.1-positive cells); test: Flow cytometry of insulin-producing cell population treated with PLK inhibitor for last 4 days of differentiation (Example 1); format: cell-based; details: 3 μM; for Proportion of CHGA-negative and Ki67-negative cells / Proportion of CHGA-negative and Ki67-positive cells / Proportion of insulin-positive and NKX6.1-positive cells: 4 days treatment, flow cytometry
From the text: The number of CHGA-negative (and Ki67-positive or Ki67-negative) cells in the cell population obtained by each of the above methods 1) and 2) was counted by flow cytometry to determine the proportion of unintended cells, that is, a CHGA-negative (and Ki67-positive or Ki67-negative) rate, in each cell population.
The number of insulin-positive and NKX6.1-positive cells in the cell population obtained by each of the above methods 1) and 2) was counted by flow cytometry to determine the proportion of the cells of interest, that is, insulin-positive and NKX6.1-positive cells, in each method.

[3] = last 4 days of differentiation into insulin-producing cells

## COc1ccc2c(c1)[C@@]1(C[C@@H]1c1ccc3c(/C=C/c4ccc(CN5C[C@@H](C)O[C@@H](C)C5)cc4)n[nH]c3c1)C(=O)N2 [CAS1338800-06-8, (1S,2R)-2-[3-[(1E)-2-[4-[[(2R,6S)-2,6-dimethyl-4-morpholinyl]methyl]phenyl]ethenyl]-1H-indazol-6-yl]-5′-methoxy-spiro[cyclopropane-1,3′-[^3H]indol]-2′(1′H)-one]
[1]
  Proportion of CHGA-negative cells (both Ki67-positive and Ki67-negative) as compared with a control: markedly decreased
  Proportion of insulin-positive (and NKX6.1-positive) cells as compared with a control: markedly increased
[2]; first experiment
  Proportion of CHGA-negative and Ki67-negative cells: 11.4%
  Proportion of CHGA-negative and Ki67-positive cells: 0.8%
  Proportion of insulin-positive and NKX6.1-positive cells: 22.4%
[2]; second experiment
  Proportion of CHGA-negative and Ki67-negative cells: 12.4%
  Proportion of CHGA-negative and Ki67-positive cells: 0.2%
  Proportion of insulin-positive and NKX6.1-positive cells: 23.0%
[2]; [3]
  Proportion of CHGA-negative cells (both Ki67-positive and Ki67-negative) as compared with a control: markedly decreased
  Proportion of the cells of interest (insulin-positive and NKX6.1-positive cells) as compared with a control: markedly increased
